Laboratory results taken from patent EP3544951B1, “SUBSTITUTED HEXARIC ACID DERIVATIVES AND USES THEREOF” (Plant Advanced Technologies Pat, priority 2016, dated 2018).

Experiments:
[1] = system: neurones corticaux primaires de rat; experiment: Survival of primary cortical neurons intoxicated with Aβ 1-42 peptide (MAP-2 staining); type: cell-based; settings: pre-incubated 1 h before Aβ 1-42 20 µM
Excerpt: (§1) Le but de cette étude est d'évaluer les effets de l'acide léontopodique B1 sur des neurones corticaux primaires de rat, intoxiqués par le peptide Aβ selon le modèle in vitro de la maladie d'Alzheimer décrit dans Callizot et al., 2013 (Callizot N. et al., Operational dissection of β-amyloid cytopathic effects on cultured neurons. J Neurosci Res. 2013, 91: 706-16). La survie des neurones et des astrocytes ainsi que l'intégrité du réseau de neurites sont évaluées.
(§2) Des neurones corticaux de rat sont cultivés comme décrit dans Singer et al., 1999 (Singer C. et al., Mitogen-activated protein kinase pathway mediates estrogen neuroprotection after glutamate toxicity in primary cortical neurons. J Neurosci. 1999, 19: 2455-2463) et Callizot et al. (2013).
(§3) En résumé, des rats femelles gravides sont tuées par dislocation cervicale après 15 jours de gestation. Les fœtus sont collectés et immédiatement placés dans un milieu glacé L15 Leibovitz (Pan Biotech, Batch: 8810315) additionné de 2% pénicilline (10,000 U/mL) et d'une solution de streptomycine (10 mg/mL) (PS; Pan Biotech, batch: 1451013) et 1% de albumine de sérum de bovin (BSA; Pan Biotech, batch: K180713). Le cortex est traité pendant 20 min à 37°C avec une solution de trypsine- EDTA (Pan Biotech, Batch: 3330914) à une concentration finale de 0,05% trypsine et 0,02% EDTA. […]

[2] = system: réseau de neurites de neurones corticaux primaires; experiment: Neurite network of primary cortical neurons intoxicated with Aβ 1-42 peptide (MAP-2 staining); type: cell-based, rat; settings: two lowest concentrations 10 nM, 100 nM; pre-incubated 1 h before Aβ 1-42 20 µM, 24 h (Figure 2)
Excerpt: as §1, §2, §3

[3] = system: astrocytes; experiment: Survival of astrocytes in primary cortical neuron culture intoxicated with Aβ 1-42 peptide (GFAP staining); type: cell-based, rat; settings: Aβ 1-42 20 µM, 24 h (Figure 3)
Excerpt: as §1, §2, §3

[4] = system: astrocytes sains (non traités par le peptide Aβ 1-42); experiment: Proliferation of pure healthy astrocytes (MTT test, CellTiter 96 Aqueous One Solution); type: cell-based, rat (Wistar); settings: 4 days incubation, no Aβ 1-42 (Figure 4)
Procedure: En résumé, le cerveau entier d'un embryon âgé de 15 jours de rat (Wistar) est prélevé. Le cerveau entier est dissocié par trypsinisation. Les cellules sont suspendues dans un milieu de culture du milieu DMEM (Dulbecco's modified Eagle's medium) complémenté avec 2% de pénicilline (10,000 U/mL) et d'une solution de streptomycine (10 mg/mL), et 10% de sérum de veau fœtal (FCS). Les cellules sont ensemencées à une densité de 267 000 cellules par cm^2 dans un flacon de culture. Au stade de la confluence cellulaire, le flacon est secoué pendant 3 heures. Le surnageant de la culture cellulaire est enlevé, les cellules sont traitées par une solution de trypsine- EDTA (Pan Biotech) à une concentration finale de 0,05% trypsine et de 0,02% EDTA. Ensuite les cellules sont congelées afin de constituer une lignée cellulaire d'astrocytes.
Les astrocytes (au stade : P4) sont ensemencées à une densité de 4 000 par puits d'une plaque de 96 puits avec de l'acide léontopodique B1 (dissous à différentes concentrations : 100 nM, 1 µM, 10 µM et 50 µM dans le milieu de culture) et sont cultivées à 37°C dans un incubateur contenant 95% d'air et 5% de CO2. Le milieu est changé tous les jours. Les astrocytes sont cultivés pendant 4 jours en présence d'acide léontopodique B1 avant de mesurer son effet sur la prolifération des astrocytes. […]

Structure (SMILES): O=C(/C=C/c1ccc(O)c(O)c1)OC(C(=O)O)C(OC(=O)/C=C/c1ccc(O)c(O)c1)C(OC(=O)/C=C/c1ccc(O)c(O)c1)C(O)C(=O)O (stereo not shown) [acide léontopodique B1, acide 3,4,5-tricaféoylhexarique]
- effet sur la survie des neurones ([1]; 10 nM, 100 nM, 1 µM, 10 µM, 24 h, protective effect follows a bell-shaped curve (Figure 1)): effet significatif et important
- mort neuronale ([1]; 100 nM and 1 µM, 24 h (Figure 1)): aucune mort neuronale n'a été observée
- effet sur le réseau de neurites [2]: effet significatif et important
- effet sur la survie des astrocytes ([3]; all concentrations (10 nM to 10 µM)): effet protecteur
- mort cellulaire (astrocytes) ([3]; three highest concentrations 100 nM, 1 µM, 10 µM): Aucune mort cellulaire n'a été observée
- effet sur la prolifération des astrocytes ([4]; 100 nM up to 50 µM): aucun effet significatif
- concentration cellulaire ([4]; highest concentration 50 µM): légère mais non significative diminution
